pIC50: −log10 of the molar value.
Tested on: 313798-341-R-J2-PDC spheroids, viability
Assay: Anticancer human tumor 313798-341-R-J2-PDC patient-derived cervical squamous cell carcinoma cell line growth inhibition [PI3K]
Details: spheroids with HUVEC and MSC; for pIC50: curve of first compound; for viability, T/C: stronger effect = lower value
How it was run: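 We assembled tumor spheroids that included a stromal compartment of HUVEC and MSCs, then exposed them to targeted agents alone and together with PI3K pathway inhibitors. Concentration series descended by half-log from clinically achievable Cmax levels. Viability served as the endpoint.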

[1] = second compound 0.0316 µM, first compound 0.0316 µM
[2] = second compound 0.0316 µM, first compound 0.1 µM
[3] = second compound 0.0316 µM, first compound 0.316 µM
[4] = second compound 0.0316 µM, first compound 1 µM
[5] = second compound 0.0316 µM, first compound 3.16 µM
[6] = second compound 0.0316 µM, first compound 10 µM
[7] = second compound 0.1 µM, first compound 0.0316 µM
[8] = second compound 0.1 µM, first compound 0.1 µM
[9] = second compound 0.1 µM, first compound 0.316 µM
[10] = second compound 0.1 µM, first compound 1 µM
[11] = second compound 0.1 µM, first compound 3.16 µM
[12] = second compound 0.1 µM, first compound 10 µM
[13] = second compound 0.316 µM, first compound 0.0316 µM
[14] = second compound 0.316 µM, first compound 0.1 µM
[15] = second compound 0.316 µM, first compound 0.316 µM
[16] = second compound 0.316 µM, first compound 1 µM
[17] = second compound 0.316 µM, first compound 3.16 µM
[18] = second compound 0.316 µM, first compound 10 µM
[19] = second compound 1 µM, first compound 0.0316 µM
[20] = second compound 1 µM, first compound 0.1 µM
[21] = second compound 1 µM, first compound 0.316 µM
[22] = second compound 1 µM, first compound 1 µM
[23] = second compound 1 µM, first compound 3.16 µM
[24] = second compound 1 µM, first compound 10 µM
[25] = second compound 3.16 µM, first compound 0.0316 µM
[26] = second compound 3.16 µM, first compound 0.1 µM
[27] = second compound 3.16 µM, first compound 0.316 µM
[28] = second compound 3.16 µM, first compound 1 µM
[29] = second compound 3.16 µM, first compound 3.16 µM
[30] = second compound 3.16 µM, first compound 10 µM
[31] = second compound 10 µM, first compound 0.0316 µM
[32] = second compound 10 µM, first compound 0.1 µM
[33] = second compound 10 µM, first compound 0.316 µM
[34] = second compound 10 µM, first compound 1 µM
[35] = second compound 10 µM, first compound 3.16 µM
[36] = second compound 10 µM, first compound 10 µM
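Further: spheroids exposed to compounds for seven days.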
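Wherever viability, T/C is given: 100% = DMSO vehicle control viability.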

Compound: C=CC(=O)N1CCN(c2nc(=O)n(-c3c(C)ccnc3C(C)C)c3nc(-c4c(O)cccc4F)c(F)cc23)C(C)C1 (stereo not drawn) + CC(Nc1ncnc2nc[nH]c12)c1cc2cccc(Cl)c2c(=O)n1-c1ccccc1
- pIC50 (second compound 0.0316 µM): < 5.00
- pIC50 (second compound 0.1 µM): < 5.00
- pIC50 (second compound 0.316 µM): < 5.00
- pIC50 (second compound 1 µM): < 5.00
- pIC50 (second compound 3.16 µM): < 5.00
- pIC50 (second compound 10 µM): < 5.00
- viability, T/C [1]: 112%
- viability, T/C [2]: 102%
- viability, T/C [3]: 113%
- viability, T/C [4]: 100%
- viability, T/C [5]: 103%
- viability, T/C [6]: 94.9%
- viability, T/C [7]: 89.4%
- viability, T/C [8]: 96.2%
- viability, T/C [9]: 99.1%
- viability, T/C [10]: 99.8%
- viability, T/C [11]: 102%
- viability, T/C [12]: 102%
- viability, T/C [13]: 106%
- viability, T/C [14]: 91.5%
- viability, T/C [15]: 106%
- viability, T/C [16]: 98.1%
- viability, T/C [17]: 104%
- viability, T/C [18]: 92.9%
- viability, T/C [19]: 102%
- viability, T/C [20]: 95.4%
- viability, T/C [21]: 102%
- viability, T/C [22]: 90.3%
- viability, T/C [23]: 98.2%
- viability, T/C [24]: 102%
- viability, T/C [25]: 110%
- viability, T/C [26]: 94.1%
- viability, T/C [27]: 87.6%
- viability, T/C [28]: 99.5%
- viability, T/C [29]: 100%
- viability, T/C [30]: 91.9%
- viability, T/C [31]: 87.7%
- viability, T/C [32]: 85.2%
- viability, T/C [33]: 98.2%
- viability, T/C [34]: 84.1%
- viability, T/C [35]: 90.4%
- viability, T/C [36]: 78.3%

Compound: CC(Cn1ccc(-c2ccc(C#N)c(Cl)c2)n1)NC(=O)c1cc(C(C)O)[nH]n1 (stereo not drawn) + CC(Nc1ncnc2nc[nH]c12)c1cc2cccc(Cl)c2c(=O)n1-c1ccccc1
- pIC50 (second compound 0.0316 µM): < 5.00
- pIC50 (second compound 0.1 µM): < 5.00
- pIC50 (second compound 0.316 µM): < 5.00
- pIC50 (second compound 1 µM): < 5.00
- pIC50 (second compound 3.16 µM): < 5.00
- pIC50 (second compound 10 µM): < 5.00
- viability, T/C [1]: 119%
- viability, T/C [2]: 103%
- viability, T/C [3]: 106%
- viability, T/C [4]: 115%
- viability, T/C [5]: 101%
- viability, T/C [6]: 101%
- viability, T/C [7]: 101%
- viability, T/C [8]: 105%
- viability, T/C [9]: 104%
- viability, T/C [10]: 103%
- viability, T/C [11]: 98%
- viability, T/C [12]: 95%
- viability, T/C [13]: 90.9%
- viability, T/C [14]: 103%
- viability, T/C [15]: 96.6%
- viability, T/C [16]: 101%
- viability, T/C [17]: 102%
- viability, T/C [18]: 90%
- viability, T/C [19]: 113%
- viability, T/C [20]: 106%
- viability, T/C [21]: 108%
- viability, T/C [22]: 101%
- viability, T/C [23]: 96.2%
- viability, T/C [24]: 91.5%
- viability, T/C [25]: 108%
- viability, T/C [26]: 103%
- viability, T/C [27]: 100%
- viability, T/C [28]: 107%
- viability, T/C [29]: 105%
- viability, T/C [30]: 93.4%
- viability, T/C [31]: 87.8%
- viability, T/C [32]: 88.3%
- viability, T/C [33]: 94.6%
- viability, T/C [34]: 100%
- viability, T/C [35]: 90.8%
- viability, T/C [36]: 81.7%

Compound: CNC(=O)c1ccc(N2C(=S)N(c3ccc(C#N)c(C(F)(F)F)c3)C(=O)C2(C)C)cc1F + COc1c(OCCCN2CCOCC2)ccc2c3n(c(=NC(=O)c4cnc(N)nc4)nc12)CCN3
- pIC50 (second compound 0.00316 µM): < 5.00
- pIC50 (second compound 0.01 µM): < 5.00
- pIC50 (second compound 0.0316 µM): < 5.00
- pIC50 (second compound 0.1 µM): > 7.50
- pIC50 (second compound 0.316 µM): > 7.50
- pIC50 (second compound 1 µM): > 7.50
- viability, T/C (second compound 0.00316 µM, first compound 0.0316 µM): 98.3%
- viability, T/C (second compound 0.00316 µM, first compound 0.1 µM): 117%
- viability, T/C (second compound 0.00316 µM, first compound 0.316 µM): 102%
- viability, T/C (second compound 0.00316 µM, first compound 1 µM): 112%
- viability, T/C (second compound 0.00316 µM, first compound 3.16 µM): 99.8%
- viability, T/C (second compound 0.00316 µM, first compound 10 µM): 87.1%
- viability, T/C (second compound 0.01 µM, first compound 0.0316 µM): 102%
- viability, T/C (second compound 0.01 µM, first compound 0.1 µM): 100%
- viability, T/C (second compound 0.01 µM, first compound 0.316 µM): 97.3%
- viability, T/C (second compound 0.01 µM, first compound 1 µM): 115%
- viability, T/C (second compound 0.01 µM, first compound 3.16 µM): 94.7%
- viability, T/C (second compound 0.01 µM, first compound 10 µM): 96.7%
- viability, T/C [1]: 73.3%
- viability, T/C [2]: 79.2%
- viability, T/C [3]: 73.2%
- viability, T/C [4]: 71.3%
- viability, T/C [5]: 74.1%
- viability, T/C [6]: 62.8%
- viability, T/C [7]: 37.3%
- viability, T/C [8]: 42.9%
- viability, T/C [9]: 39.7%
- viability, T/C [10]: 40.8%
- viability, T/C [11]: 34.9%
- viability, T/C [12]: 31.8%
- viability, T/C [13]: 15.5%
- viability, T/C [14]: 16.6%
- viability, T/C [15]: 13.9%
- viability, T/C [16]: 13.4%
- viability, T/C [17]: 14.8%
- viability, T/C [18]: 12.3%
- viability, T/C [19]: 11.8%
- viability, T/C [20]: 9.64%
- viability, T/C [21]: 11.3%
- viability, T/C [22]: 9.53%
- viability, T/C [23]: 9.76%
- viability, T/C [24]: 8.76%

Compound: Cn1nccc1Nc1nccc(-c2ccn(C(CO)c3ccc(Cl)c(F)c3)c(=O)c2)n1 (stereo not drawn) + Cc1nc(NC(=O)N2CCCC2C(N)=O)sc1-c1ccnc(C(C)(C)C(F)(F)F)c1
- pIC50 (second compound 0.0316 µM): < 5.00
- pIC50 (second compound 0.1 µM): < 5.00
- pIC50 (second compound 0.316 µM): < 5.00
- pIC50 (second compound 1 µM): < 5.00
- pIC50 (second compound 3.16 µM): 5.22
- pIC50 (second compound 10 µM): > 7.50
- viability, T/C [1]: 102%
- viability, T/C [2]: 90%
- viability, T/C [3]: 92.9%
- viability, T/C [4]: 102%
- viability, T/C [5]: 102%
- viability, T/C [6]: 109%
- viability, T/C [7]: 95.7%
- viability, T/C [8]: 103%
- viability, T/C [9]: 99%
- viability, T/C [10]: 103%
- viability, T/C [11]: 113%
- viability, T/C [12]: 106%
- viability, T/C [13]: 97.4%
- viability, T/C [14]: 102%
- viability, T/C [15]: 103%
- viability, T/C [16]: 98.8%
- viability, T/C [17]: 109%
- viability, T/C [18]: 103%
- viability, T/C [19]: 88.8%
- viability, T/C [20]: 81.3%
- viability, T/C [21]: 91.9%
- viability, T/C [22]: 90.4%
- viability, T/C [23]: 89.4%
- viability, T/C [24]: 71.3%
- viability, T/C [25]: 57.9%
- viability, T/C [26]: 60.4%
- viability, T/C [27]: 55.7%
- viability, T/C [28]: 56.5%
- viability, T/C [29]: 52.9%
- viability, T/C [30]: 45.4%
- viability, T/C [31]: 35.4%
- viability, T/C [32]: 22.1%
- viability, T/C [33]: 31.6%
- viability, T/C [34]: 26.8%
- viability, T/C [35]: 29.2%
- viability, T/C [36]: 24.1%

Source: PubChem BioAssay AID1963982 (Molecular Pharmacology Branch, DTP, NCI, 2024)
